From PMC12432892, “Therapeutic applications of interface-mimicking peptides for targeting the SARS-CoV-2 NSP12-NSP8 RdRp complex” (Molecular Therapy, 2025)

What was measured:
[1] = Liver microsomal stability; format: in vitro ADME, mouse; settings: for Metabolic Stability Evaluation: classified based on in vivo CL_int values (footnote of Table S3); for half-life at 10 μM / remaining at 1 h, 10 μM / microsomal CLint at 10 μM: mouse liver microsomes (CD-1, pooled), 37°C; for half-life at 10 μM: NADPH, 0, 5, 15, 30, 60 min, duplicate (n = 2); for half-life at 10 μM / remaining at 1 h, 10 μM: LC-MS/MS; for remaining at 1 h, 10 μM / microsomal CLint at 10 μM: NADPH; for remaining at 1 h, 10 μM: n = 2, read-out: Microsomal Stability Remaining at 60 min; for microsomal CLint at 10 μM: calculated from the depletion rate, read-out: CL_int, microsomal; for CL_int, in vivo: scaled from microsomal CL_int to in vivo liver clearance using established mouse parameters
Procedure: Reactions were quenched and peptide concentrations were quantified using liquid chromatography-tandem mass spectrometry (LC-MS/MS) (AB Sciex QTRAP 6500+, Analyst software version 1.7.2). Clearance and half-life were calculated by non-compartmental analysis, and values were converted to hepatic clearance (CLint, liver) using standard scaling factors.
(§1) All in vitro stability experiments were performed in duplicate (n = 2). Since the standard deviation was less than 20% in all cases, no additional replicates were conducted.

[2] = tested on: Vero-E6 cells; assay: in vitro; format: cell-based; settings: MTT, 24 h
Procedure: (§2) The cytotoxicity of test samples was assessed in Vero-E6 cells using the MTT assay, following the manufacturer’s protocol for the CellTiter 96 Non-radioactive Cell Proliferation Assay (Promega). Briefly, […] cells were seeded in 96-well plates at a density of 2 × 10^4 cells per well and incubated for 24 h. Following this, cells were treated with test samples at concentrations ranging from 0.2 to 40 μM and incubated for an additional 24 h. After incubation, 15 μL of MTT reagent (dye solution) was added to each well, and the cells were further incubated for 4 h. Subsequently, 100 μL of solubilization/stop solution was added to dissolve the formazan crystals. The optical density was measured at 570 nm, and statistical significance was determined by comparing the results to those of the mock-treated cells. […]
(§3) Figure S5. MTT assay of peptides including scrambled version
(§4) Vero-E6 cells were treated with NSP8-based peptides at concentrations ranging from 0.2 to 40 μM and incubated for an additional 24 hours. Cytotoxicity was evaluated using the MTT assay to assess the impact of the peptides on cell viability. According to IOS 10993-5 guidelines, cell […]
(§5) moderate cytotoxicity, and below 40% signifies strong cytotoxicity. […]

[3] = Plasma stability; format: in vitro ADME; settings: mouse plasma (ICR, male, K2-EDTA), LC-MS/MS; for Plasma Stability Half-life / time to complete loss of detectable peptide in plasma: 10 μM; for Plasma Stability Half-life / half-life at 10 μM: 37°C, 0, 20, 40, 60, 120 min, duplicate (n = 2); for time to complete loss of detectable peptide in plasma: 37°C, n = 2
Procedure: Plasma stability of the peptides was evaluated using mouse plasma (ICR, male, K2-EDTA) purchased from Innovative Research. Each peptide (10 μM final concentration) was incubated at 37°C for 0, 20, 40, 60, and 120 min. Samples were processed and analyzed by LC-MS/MS, as described above. Procaine was used as a positive control.
as §1

[4] = biological target: T1, SARS-CoV-2 RdRp (Severe acute respiratory syndrome coronavirus 2, UniProt P0DTD1); format: cell-based
T1 construct: The SARS-CoV-2 reporter and NSP12, NSP7, and NSP8 genes were cloned into pcDNA3.1(+) plasmid vectors; expressed in transfected cells; host or cells: 293T (HEK-293T) cells, pcDNA3.1(+) plasmids

[5] = biological target: T2, NSP12-NSP8-NSP7 complex (Severe acute respiratory syndrome coronavirus 2, UniProt P0DTD1); format: binding, SARS-CoV-2; settings: for KD of the NSP8-NSP7-RNA ligand complex to NSP12 in the presence of the peptide: MST, labeled NSP12 20 nM, PBS with Tween 20, mean ± SD, more than three independent analyses, no-peptide Ctrl 11.9-12.9 nM
T2 construct: made in house; host or cells: NSP12: baculovirus in Hifive insect cells; NSP7 and NSP8: E. coli BL21(DE3), pET-11

[6] = in vitro; format: cell-based; settings: Vero-E6 cells, MTT, 40 μM peptide, read-out: cell viability
Procedure: as §2, §3, §4, §5

[7] = tested on: wild-type ancestral SARS-CoV-2 L-clade strain; format: cell-based
[8] = concentrations between 20 and 40 μM

CC[C@H](C)[C@H](NC(=O)[C@H](CC(N)=O)NC(=O)[C@H](CC(N)=O)NC(=O)[C@H](CC(C)C)NC(=O)CNC(=O)[C@H](CO)NC(=O)CNC(=O)[C@H](CCCNC(=N)N)NC(=O)[C@H](CCCNC(=N)N)NC(=O)[C@H](CCCNC(=N)N)NC(=O)[C@H](CCC(N)=O)NC(=O)[C@H](CCCNC(=N)N)NC(=O)[C@H](CCCNC(=N)N)NC(=O)[C@H](CCCCN)NC(=O)[C@H](CCCCN)NC(=O)[C@H](CCCNC(=N)N)NC(=O)CNC(=O)[C@H](Cc1ccc(O)cc1)NC(C)=O)C(=O)N[C@H](C(=O)N[C@@H](CC(N)=O)C(=O)N[C@@H](CC(N)=O)C(=O)N[C@@H](C)C(=O)N[C@@H](CCCNC(=N)N)C(=O)N[C@@H](CC(=O)O)C(=O)NCC(=O)N[C@@H](CS)C(=O)N[C@H](C(=O)N1CCC[C@H]1C(=O)N[C@@H](CC(C)C)C(=O)N[C@@H](CC(N)=O)C(=O)N[C@H](C(=O)N[C@H](C(=O)N1CCC[C@H]1C(=O)N[C@@H](CC(C)C)C(=O)N[C@H](C(=O)N[C@H](C(=O)N[C@@H](C)C(=O)N[C@@H](C)C(=O)N[C@@H](CCCCN)C(=O)N[C@@H](CC(C)C)C(=O)N[C@@H](CCSC)C(=O)N[C@H](C(=O)N[C@H](C(N)=O)C(C)C)C(C)C)[C@@H](C)O)[C@@H](C)O)[C@@H](C)CC)[C@@H](C)CC)C(C)C)[C@@H](C)CC [N8-Pepβ]
Metabolic Stability Evaluation [1]: High metabolism
half-life at 10 μM [1]: 9.8 min
remaining at 1 h, 10 μM [1]: 15.1%
microsomal CLint at 10 μM [1]: 142 µL/min/mg
CL_int, in vivo [1]: 559.2 mL/min/kg
cytotoxicity (ISO 10993-5) [2, 8]: weak cytotoxicity (80%-60% suggests weak cytotoxicity)
Plasma Stability Half-life [3]: approximately 3 min
time to complete loss of detectable peptide in plasma [3]: ≤ 20 min
half-life at 10 μM [3]: 3 min

CCC(CC)COC(=O)[C@H](C)N[P@](=O)(OC[C@H]1O[C@@](C#N)(c2ccc3c(N)ncnn23)[C@H](O)[C@@H]1O)Oc1ccccc1 [remdesivir]
effect on polymerase activity, in words [4]: dose-dependent reduction in polymerase activity

CC[C@H](C)[C@H](NC(=O)[C@H](CC(N)=O)NC(=O)[C@H](CC(C)C)NC(=O)[C@@H]1CCCN1C(=O)[C@@H](NC(=O)[C@H](CS)NC(=O)CNC(=O)[C@H](CC(=O)O)NC(=O)[C@H](CCCNC(=N)N)NC(=O)[C@H](C)NC(=O)CNC(=O)[C@H](CO)NC(=O)CNC(=O)[C@H](CCCNC(=N)N)NC(=O)[C@H](CCCNC(=N)N)NC(=O)[C@H](CCCNC(=N)N)NC(=O)[C@H](CCC(N)=O)NC(=O)[C@H](CCCNC(=N)N)NC(=O)[C@H](CCCNC(=N)N)NC(=O)[C@H](CCCCN)NC(=O)[C@H](CCCCN)NC(=O)[C@H](CCCNC(=N)N)NC(=O)CNC(=O)[C@H](Cc1ccc(O)cc1)NC(C)=O)C(C)C)C(=O)N[C@H](C(=O)N1CCC[C@H]1C(=O)N[C@@H](CC(C)C)C(=O)N[C@H](C(=O)N[C@H](C(=O)N[C@@H](C)C(=O)N[C@@H](C)C(=O)N[C@@H](CCCCN)C(=O)N[C@@H](CC(C)C)C(=O)N[C@@H](CCSC)C(=O)N[C@H](C(=O)N[C@H](C(=O)N[C@H](C(=O)N1CCC[C@H]1C(=O)N[C@@H](CC(=O)O)C(N)=O)[C@@H](C)CC)C(C)C)C(C)C)[C@@H](C)O)[C@@H](C)O)[C@@H](C)CC [N8-PepβD]
Metabolic Stability Evaluation [1]: High metabolism
half-life at 10 μM [1]: 17.8 min
remaining at 1 h, 10 μM [1]: 7.8%
microsomal CLint at 10 μM [1]: 77.9 µL/min/mg
CL_int, in vivo [1]: 306.7 mL/min/kg
cytotoxicity (ISO 10993-5) [2, 8]: weak cytotoxicity (80%-60% suggests weak cytotoxicity)
Plasma Stability Half-life [3]: approximately 3 min
time to complete loss of detectable peptide in plasma [3]: ≤ 20 min
half-life at 10 μM [3]: 3 min

Ac-INRNLTVPNICTPGILINADANADLNGRKKRRQRRRPQ-NH2 [N8-Pepα_sc]
KD of the NSP8-NSP7-RNA ligand complex to NSP12 in the presence of the peptide [5]: 14.3 ± 1.0 nM

Ac-YGRKKRRQRRRGSGINVDAPMNNAGLKLTIRPCLTVIVNANIL-NH2 [N8-Pepβ_sc]
KD of the NSP8-NSP7-RNA ligand complex to NSP12 in the presence of the peptide [5]: 14.2 ± 0.9 nM

Ac-YGRKKRRQRRRGSGVVIPKIDLAAPNLMDLVPCRIATTG-NH2 [N8-PepβD_sc]
peptide aggregation in the MST assay ([5]; PBS with Tween 20 buffer, peptide 24 μM): could not be determined due to peptide aggregation

CC[C@H](C)[C@H](NC(=O)[C@H](CC(N)=O)NC(=O)[C@H](CC(N)=O)NC(=O)[C@H](CC(C)C)NC(=O)[C@H](C)NC(=O)[C@H](CC(=O)O)NC(=O)[C@H](CC(N)=O)NC(C)=O)C(=O)N[C@H](C(=O)N[C@@H](CC(N)=O)C(=O)N[C@@H](CC(N)=O)C(=O)N[C@@H](C)C(=O)N[C@@H](CCCNC(=N)N)C(=O)N[C@@H](CC(=O)O)C(=O)NCC(=O)N[C@@H](CS)C(=O)N[C@H](C(=O)N1CCC[C@H]1C(=O)N[C@@H](CC(C)C)C(=O)N[C@@H](CC(N)=O)C(=O)N[C@H](C(=O)N[C@H](C(=O)N1CCC[C@H]1C(=O)N[C@@H](CC(C)C)C(=O)N[C@H](C(=O)N[C@H](C(=O)N[C@@H](C)C(=O)NCC(=O)N[C@@H](CCCNC(=N)N)C(=O)N[C@@H](CCCCN)C(=O)N[C@@H](CCCCN)C(=O)N[C@@H](CCCNC(=N)N)C(=O)N[C@@H](CCCNC(=N)N)C(=O)N[C@@H](CCC(N)=O)C(=O)N[C@@H](CCCNC(=N)N)C(=O)N[C@@H](CCCNC(=N)N)C(=O)N[C@@H](CCCNC(=N)N)C(=O)N1CCC[C@H]1C(=O)N[C@@H](CCC(N)=O)C(N)=O)[C@@H](C)O)[C@@H](C)O)[C@@H](C)CC)[C@@H](C)CC)C(C)C)[C@@H](C)CC [N8-Pepα]
Metabolic Stability Evaluation [1]: High metabolism
half-life at 10 μM [1]: 9.2 min
remaining at 1 h, 10 μM [1]: 0%
microsomal CLint at 10 μM [1]: 151 µL/min/mg
CL_int, in vivo [1]: 594.7 mL/min/kg
viability at 24 h, 40 µM [6]: > 80%
cytotoxicity (ISO 10993-5) ([2]; at 40 μM): no cytotoxicity (cell viability above 80% indicates no cytotoxicity)
viral replication (infectious virus titers, TCID50), in words [7]: strongest antiviral effects
Plasma Stability Half-life [3]: approximately 3 min
time to complete loss of detectable peptide in plasma [3]: ≤ 20 min
half-life at 10 μM [3]: 3 min

CC[C@H](C)[C@@H]1NC(=O)[C@H](CC(N)=O)NC(=O)[C@H](CC(N)=O)NC(=O)[C@H](CC(C)C)NC(=O)[C@H](C)NC(=O)[C@H](CC(=O)O)NC(=O)[C@H](CC(N)=O)NC(=O)[C@@H](NC(C)=O)CSSC[C@@H](C(=O)NCC(=O)N[C@@H](CCCNC(=N)N)C(=O)N[C@@H](CCCCN)C(=O)N[C@@H](CCCCN)C(=O)N[C@@H](CCCNC(=N)N)C(=O)N[C@@H](CCCNC(=N)N)C(=O)N[C@@H](CCC(N)=O)C(=O)N[C@@H](CCCNC(=N)N)C(=O)N[C@@H](CCCNC(=N)N)C(=O)N[C@@H](CCCNC(=N)N)C(=O)N2CCC[C@H]2C(=O)N[C@@H](CCC(N)=O)C(N)=O)NC(=O)[C@H](C)NC(=O)[C@H]([C@@H](C)O)NC(=O)[C@H]([C@@H](C)O)NC(=O)[C@H](CC(C)C)NC(=O)[C@@H]2CCCN2C(=O)[C@H]([C@@H](C)CC)NC(=O)[C@H]([C@@H](C)CC)NC(=O)[C@H](CC(N)=O)NC(=O)[C@H](CC(C)C)NC(=O)[C@@H]2CCCN2C(=O)[C@H](C(C)C)NC(=O)[C@H](CS)NC(=O)CNC(=O)[C@H](CC(=O)O)NC(=O)[C@H](CCCNC(=N)N)NC(=O)[C@H](C)NC(=O)[C@H](CC(N)=O)NC(=O)[C@H](CC(N)=O)NC(=O)[C@H]([C@@H](C)CC)NC1=O [N8-Pepα_cyc]
Metabolic Stability Evaluation [1]: High metabolism
half-life at 10 μM [1]: 23.3 min
remaining at 1 h, 10 μM [1]: 14.9%
microsomal CLint at 10 μM [1]: 59.6 µL/min/mg
CL_int, in vivo [1]: 234.7 mL/min/kg
viability at 24 h, 40 µM [6]: > 80%
cytotoxicity (ISO 10993-5) ([2]; at 40 μM): no cytotoxicity (cell viability above 80% indicates no cytotoxicity)
viral replication (infectious virus titers, TCID50), in words [7]: strongest antiviral effects
Plasma Stability Half-life [3]: approximately 3 min
time to complete loss of detectable peptide in plasma [3]: ≤ 20 min
half-life at 10 μM [3]: 3 min
